# Experimental data reported in article PMC9851200, “Multiparameter phenotypic screening for endogenous TFEB and TFE3 translocation identifies novel chemical series modulating lysosome function” (Autophagy, 2022).
# Key:
# TLK1 = target: T1, TLK1 (Homo sapiens, UniProt Q9UKI8); assay: KiNativ in-cell kinase binding, TLK1; conditions: SH-SY5Y cells, Labeling Site Lys2
# T1 construct: endogenous in cells; host or cells: SH-SY5Y
# Description: As KINOMEscan is an in vitro assay, and as different cell types have variable kinase expression profiles we sought to determine the kinase binding profile in our SH-SY5Y TFEB-relocalization cell model. […] Bound kinases were pulled down and analyzed by mass spectrometry to determine the in situ kinase binding profile for each compound.
# PRKD1 = target: T2, PRKD1 (Homo sapiens, UniProt Q15139); assay: PRKD1 binding KD (Table S3); conditions: relation sign
# T2 sequence (Q15139 1-912): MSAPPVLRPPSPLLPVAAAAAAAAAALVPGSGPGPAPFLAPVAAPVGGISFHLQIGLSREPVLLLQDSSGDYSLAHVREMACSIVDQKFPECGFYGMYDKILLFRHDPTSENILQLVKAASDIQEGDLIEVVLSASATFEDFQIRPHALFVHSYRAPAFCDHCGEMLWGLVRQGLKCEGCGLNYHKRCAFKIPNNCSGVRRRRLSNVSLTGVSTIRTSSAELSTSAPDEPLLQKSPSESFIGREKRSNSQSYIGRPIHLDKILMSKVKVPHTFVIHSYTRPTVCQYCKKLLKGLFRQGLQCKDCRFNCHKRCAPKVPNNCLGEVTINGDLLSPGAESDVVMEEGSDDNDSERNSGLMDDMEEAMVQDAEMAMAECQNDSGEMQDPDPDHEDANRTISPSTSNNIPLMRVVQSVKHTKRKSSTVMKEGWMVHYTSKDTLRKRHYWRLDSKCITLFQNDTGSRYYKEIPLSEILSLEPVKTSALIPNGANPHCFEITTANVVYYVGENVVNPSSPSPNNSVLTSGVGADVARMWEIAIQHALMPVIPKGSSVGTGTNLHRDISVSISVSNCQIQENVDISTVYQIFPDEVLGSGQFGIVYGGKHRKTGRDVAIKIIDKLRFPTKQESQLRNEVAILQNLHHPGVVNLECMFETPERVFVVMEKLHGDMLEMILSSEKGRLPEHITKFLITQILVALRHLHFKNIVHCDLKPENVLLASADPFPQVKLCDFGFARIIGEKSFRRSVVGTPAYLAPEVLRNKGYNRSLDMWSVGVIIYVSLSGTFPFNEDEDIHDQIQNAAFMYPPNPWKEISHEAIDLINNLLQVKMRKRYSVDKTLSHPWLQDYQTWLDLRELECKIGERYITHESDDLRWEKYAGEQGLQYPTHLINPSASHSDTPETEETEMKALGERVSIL
# Description: Supplement KAUP_A_2095834_SM5251.zip/Supplementary Tables R7.xlsx, sheet "Table S3 - Analogues"
# JAK1(JH2) = target: T3, JAK1(JH2) (Homo sapiens, UniProt P23458); assay: KINOMEscan JAK1(JH2); format: binding; conditions: NEW KINOMEscan
# T3 construct: JAK1(JH2)
# PRKD2 = target: T4, PRKD2 (Homo sapiens, UniProt Q9BZL6); assay: KINOMEscan PRKD2; format: binding; conditions: NEW KINOMEscan
# T4 sequence (Q9BZL6 1-878): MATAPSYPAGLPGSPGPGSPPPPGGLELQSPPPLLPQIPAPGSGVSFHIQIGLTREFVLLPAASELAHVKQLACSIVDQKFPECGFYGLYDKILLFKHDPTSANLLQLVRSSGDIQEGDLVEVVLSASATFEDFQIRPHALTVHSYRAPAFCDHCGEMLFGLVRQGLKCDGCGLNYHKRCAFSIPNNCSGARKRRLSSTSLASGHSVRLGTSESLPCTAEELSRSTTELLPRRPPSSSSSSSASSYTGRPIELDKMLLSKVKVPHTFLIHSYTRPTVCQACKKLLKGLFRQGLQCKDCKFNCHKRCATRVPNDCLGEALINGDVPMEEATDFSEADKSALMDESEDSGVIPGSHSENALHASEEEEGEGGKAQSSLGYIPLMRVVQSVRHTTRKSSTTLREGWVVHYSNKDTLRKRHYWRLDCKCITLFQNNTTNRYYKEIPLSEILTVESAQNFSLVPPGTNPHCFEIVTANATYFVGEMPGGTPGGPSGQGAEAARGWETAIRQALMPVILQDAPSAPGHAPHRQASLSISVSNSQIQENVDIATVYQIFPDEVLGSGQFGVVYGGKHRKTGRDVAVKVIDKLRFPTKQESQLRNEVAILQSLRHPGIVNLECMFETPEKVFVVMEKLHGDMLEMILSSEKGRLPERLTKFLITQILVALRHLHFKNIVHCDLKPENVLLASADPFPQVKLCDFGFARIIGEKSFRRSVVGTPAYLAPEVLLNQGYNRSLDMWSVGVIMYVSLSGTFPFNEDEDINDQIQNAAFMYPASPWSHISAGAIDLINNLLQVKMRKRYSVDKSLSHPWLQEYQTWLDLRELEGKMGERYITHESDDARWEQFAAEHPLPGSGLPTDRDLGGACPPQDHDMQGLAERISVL
# CSNK1D = CSNK1D (Homo sapiens, UniProt P48730); assay: KINOMEscan CSNK1D; format: binding; conditions: NEW KINOMEscan
# BMPR1B = BMPR1B (Homo sapiens, UniProt O00238); assay: KINOMEscan BMPR1B; format: binding; conditions: NEW KINOMEscan
# BMPR1B, sequence (O00238 14-502): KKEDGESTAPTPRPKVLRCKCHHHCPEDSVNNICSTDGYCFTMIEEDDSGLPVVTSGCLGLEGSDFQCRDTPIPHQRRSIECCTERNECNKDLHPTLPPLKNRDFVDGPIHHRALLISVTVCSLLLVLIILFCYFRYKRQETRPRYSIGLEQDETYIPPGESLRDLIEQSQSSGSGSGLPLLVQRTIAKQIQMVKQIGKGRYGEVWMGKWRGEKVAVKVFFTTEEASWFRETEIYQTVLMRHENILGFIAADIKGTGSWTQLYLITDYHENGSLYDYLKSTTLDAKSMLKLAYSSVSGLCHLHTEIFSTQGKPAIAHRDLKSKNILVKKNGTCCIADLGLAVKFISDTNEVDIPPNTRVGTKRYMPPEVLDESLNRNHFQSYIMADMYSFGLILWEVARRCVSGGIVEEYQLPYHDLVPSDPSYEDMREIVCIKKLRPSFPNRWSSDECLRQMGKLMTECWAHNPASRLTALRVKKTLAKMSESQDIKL
# CSNK1D, sequence (P48730 whole entry): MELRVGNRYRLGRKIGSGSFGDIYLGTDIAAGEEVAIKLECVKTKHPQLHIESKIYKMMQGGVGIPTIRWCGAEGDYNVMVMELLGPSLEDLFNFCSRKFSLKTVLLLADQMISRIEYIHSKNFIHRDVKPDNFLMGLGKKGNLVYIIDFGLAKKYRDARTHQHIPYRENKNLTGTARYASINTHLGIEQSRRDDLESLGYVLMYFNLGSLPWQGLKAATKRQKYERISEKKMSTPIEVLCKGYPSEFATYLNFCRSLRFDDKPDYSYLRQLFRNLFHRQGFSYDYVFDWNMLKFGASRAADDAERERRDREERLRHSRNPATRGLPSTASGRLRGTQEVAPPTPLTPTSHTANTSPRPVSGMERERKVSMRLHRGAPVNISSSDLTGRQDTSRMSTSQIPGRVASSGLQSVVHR
# T3 sequence (P23458 583-855 limits assumed): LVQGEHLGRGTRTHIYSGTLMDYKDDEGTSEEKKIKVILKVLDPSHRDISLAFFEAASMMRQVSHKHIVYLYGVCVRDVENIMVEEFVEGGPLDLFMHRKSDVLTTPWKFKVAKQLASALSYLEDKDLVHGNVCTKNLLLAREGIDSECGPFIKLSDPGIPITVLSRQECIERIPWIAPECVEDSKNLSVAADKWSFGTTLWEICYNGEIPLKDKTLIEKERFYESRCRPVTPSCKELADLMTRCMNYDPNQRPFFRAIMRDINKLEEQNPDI
# T1 sequence (Q9UKI8 whole entry): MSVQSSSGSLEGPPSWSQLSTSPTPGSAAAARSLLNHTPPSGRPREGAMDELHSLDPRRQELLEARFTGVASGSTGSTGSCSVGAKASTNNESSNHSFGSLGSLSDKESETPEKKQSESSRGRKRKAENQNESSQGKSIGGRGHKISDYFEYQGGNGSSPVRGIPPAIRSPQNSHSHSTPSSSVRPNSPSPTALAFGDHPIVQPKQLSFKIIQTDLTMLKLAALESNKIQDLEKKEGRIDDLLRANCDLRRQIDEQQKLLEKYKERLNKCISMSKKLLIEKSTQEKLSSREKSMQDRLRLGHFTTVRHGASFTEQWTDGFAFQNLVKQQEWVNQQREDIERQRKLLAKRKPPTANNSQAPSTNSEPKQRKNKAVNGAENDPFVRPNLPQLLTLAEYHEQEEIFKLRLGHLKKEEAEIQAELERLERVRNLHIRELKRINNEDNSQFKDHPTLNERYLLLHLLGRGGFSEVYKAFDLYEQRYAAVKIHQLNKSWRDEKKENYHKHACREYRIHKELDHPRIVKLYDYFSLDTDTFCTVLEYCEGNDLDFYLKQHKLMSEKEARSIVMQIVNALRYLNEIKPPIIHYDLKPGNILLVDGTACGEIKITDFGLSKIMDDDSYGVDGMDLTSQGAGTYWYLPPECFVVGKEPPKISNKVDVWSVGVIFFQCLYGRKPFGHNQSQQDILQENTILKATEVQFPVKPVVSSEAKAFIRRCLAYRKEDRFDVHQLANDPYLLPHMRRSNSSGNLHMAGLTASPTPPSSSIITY
Compound,inhibition at 2 µM (TLK1) [%],Kd (PRKD1) [nM],KINOMEscan JAK1(JH2domain-pseudokinase) (JAK1(JH2)),KINOMEscan PRKD2 (PRKD2),KINOMEscan CSNK1D (CSNK1D),KINOMEscan BMPR1B (BMPR1B)
Cc1cccc(-c2nc(Nc3ccc4ncsc4c3)c3ccccc3n2)n1 [NK140],48.9,–,–,–,–,–
Cc1cccc(-c2nc(Nc3ccncc3)c3ccccc3n2)n1 [NK215],–,13,–,–,–,–
Cc1cccc(-c2nc(N(C)c3ccc4ncsc4c3)c3ccccc3n2)n1 [NK-161],–,–,41,63,11,8
Cc1cccc(-c2nc(Nc3ccc4nn(C)cc4c3)c3ccccc3n2)n1 [NK167],–,–,36,39,4,0
